According to patent US7741520B2, “Sulfonanilide analogs as selective aromatase modulators (SAMs)” (The Ohio State University Research Foundation, priority 2006, dated 2010):

Columns and labels:
[1] = tested on: aromatase activity in SK-BR-3 breast cancer cells; assay: Aromatase tritiated water-release assay in SK-BR-3 cell lines (first compound set); type: cell-based, human; settings: SK-BR-3 cells, 24 h treatment; five concentrations, each in triplicate; read-out: IC50 (μM), suppression of aromatase activity in SK-BR-3 breast cancer cells
Protocol: Aromatase Tritiated Water-Release Assay in SK-BR-3 Cell Lines. SK-BR-3 cells were obtained from ATCC (Rockville, Md.). Cell cultures were maintained in phenol red-free custom media (MEM, Earle's salts, 1.5× amino acids, 2× nonessential amino acids, L-glutamine, 1.5× vitamins, Gibco BRL) supplemented with 10% fetal bovine serum (FBS), 2 mM L-glutamine, and 20 mg/L gentamycin. Measurement of aromatase enzyme activity was based on the tritium water release assay. 24 Cells in 100 mm Petri dish were treated with 0.1% DMSO (control), and inhibitors at the indicated concentrations. After 24 h, the media was changed and the cells were incubated with 100 nM [1â-3H]-androst-4-ene-3,17-dione ([…]) for 3 h. Subsequently, the reaction mixture was removed, and proteins were precipitated using 10% trichloroacetic acid at 42° C. for 20 min. After a brief centrifugation, the media was extracted three times with an equal amount of chloroform to extract unused substrate and further dextran-treated charcoal. After centrifugation, a 250-μL aliquot containing the product was counted in 5 mL of liquid scintillation mixture. Results were corrected for blanks and for the cell contents of culture flasks, and results were expressed as picomoles of 3H2O formed per hour incubation time per million live cells (pmol/h/10^6 cells). To determine the amount of cells in each flask, the cells were trypsinized and analyzed using the diphenylamine DNA assay adapted to a 96-well plate. (Natarajan N.; Shambaugh, G. E., 3rd; Elseth K. M.; Haines G. K.; Radosevich J. A. Adaptation of the diphenylamine (DPA) assay to a 96-well plate tissue culture format and comparison with the MTT assay. Biotechniques 1994, 17, 166-171; incorporated herein by reference). IC50 sigmoidal dose-response data were analyzed with Microsoft Excel and the Graphpad Prism (Version 3.0) program.

[2] = tested on: CYP19 mRNA expression in SK-BR-3 cells; assay: CYP19 mRNA expression by real-time RT-PCR in SK-BR-3 cells; type: cell-based, human; settings: 5 μM, 24 h (FIG. 14)
Protocol: (§1) RNA Extraction. Total RNA was isolated using the TRIzol reagent according to the manufacturer's protocol. Total RNA pellets were dissolved in DNase- and RNase-free water and quantitated using a spectrophotometer. The quality of RNA samples was determined by electrophoresis through agarose gels and staining with ethidium bromide; the 18S and 28S rRNA bands were visualized under ultraviolet light.
(§2) cDNA Synthesis. Isolated total RNA (2 μg) was treated with DNase I Amplification grade, according to the recommended protocol to eliminate any DNA before reverse transcription. Treated total RNA was denatured at 65° C. for 5 min in the presence of 2.5 ng/μL random hexamers and 0.5 mM dNTP mix. The samples were snap-cooled on ice and centrifuged briefly. Complementary DNA (cDNA) was synthesized using Superscript II reverse transcriptase according to the recommended protocol. Briefly, the reactions were conducted in the presence of 1× First-Strand Buffer and 20 mM DTT at 42° C. for 50 min and consequently inactivated at 70° C. for 15 min. The cDNA generated was used as a template in realtime PCR reactions.
Real-Time PCR. Real-time PCR was performed using the Opticon 2 system from MJ Research (Waltham, Mass.). For the CYP19 total gene the PCR reaction mixture consisted of Taqman Universal PCR Master Mix (Applied Biosystems), 600 nM of CYP19 primer (sense: 5′-TGTCTCTTTGTTCTTCATGCTATTTCTC-3′ (SEQ ID NO: 1); antisense: 5′-TCACCAATAACAGTCTGGATTTCC-3′) (SEQ ID NO: 2); 250 nM Taqman probe (6FAM 5′-TGCAAAGCACCCTAATGTTGAAGAGGCAAT-3′TAMRA) (SEQ ID NO: 3) (Invitrogen), 18S rRNA (Applied Biosystems, Foster City, Calif.), and 2.0 μL of each RT sample in a final volume of 20 μL. The Taqman probe was designed to anneal to a specific sequence of the aromatase gene between the forward and the reverse primers. Cycling conditions were 50° C. for 2 mm and 95° C. for 10 mm, followed by 50 cycles at 95° C. for 15 s and 60° C. for 1 mm.
as §1, with “extraction.” for “Extraction.”, “DNase,” for “DNase- and”
as §2, with “synthesis.” for “Synthesis.”, “real-time” for “realtime”
Real-time PCR. Real-time PCR was performed using the Opticon™ 2 system from MJ Research (Waltham, Mass.). For the CYP19 total gene the PCR reaction mixture consisted of Taqman® Universal PCR Master Mix (Applied Biosystems), 600 nM of CYP19 primer (sense: 5′-TGTCTCTTTGTTCTTCATGCTATTTCTC-3′ (SEQ ID NO: 1); antisense: 5′-TCACCAATAACAGTCTGGATTTCC-3′) (SEQ ID NO: 2); 250 nM Taqman probe (6FAM 5′-TGCAAAGCACCCTAATGTTGAAGAGGCAAT-3′TAMRA) (SEQ ID NO: 3) (Invitrogen), and 2.0 μL of each cDNA sample in a final volume of 20 μL. […]

[3] = target: T1, aromatase activity in JAR choriocarcinoma placental cells (Homo sapiens, UniProt P11511); assay: Tritiated water-release assay in JAR cells; type: cell-based; settings: 24 h, 15 μM (FIG. 11), read-out: decrease of aromatase activity in JAR cells
T1 construct: JAR choriocarcinoma placental cells (which produce aromatase expression from promoter I.1 mediated by protein kinase C); host or cells: JAR
T1 sequence (P11511 1-503): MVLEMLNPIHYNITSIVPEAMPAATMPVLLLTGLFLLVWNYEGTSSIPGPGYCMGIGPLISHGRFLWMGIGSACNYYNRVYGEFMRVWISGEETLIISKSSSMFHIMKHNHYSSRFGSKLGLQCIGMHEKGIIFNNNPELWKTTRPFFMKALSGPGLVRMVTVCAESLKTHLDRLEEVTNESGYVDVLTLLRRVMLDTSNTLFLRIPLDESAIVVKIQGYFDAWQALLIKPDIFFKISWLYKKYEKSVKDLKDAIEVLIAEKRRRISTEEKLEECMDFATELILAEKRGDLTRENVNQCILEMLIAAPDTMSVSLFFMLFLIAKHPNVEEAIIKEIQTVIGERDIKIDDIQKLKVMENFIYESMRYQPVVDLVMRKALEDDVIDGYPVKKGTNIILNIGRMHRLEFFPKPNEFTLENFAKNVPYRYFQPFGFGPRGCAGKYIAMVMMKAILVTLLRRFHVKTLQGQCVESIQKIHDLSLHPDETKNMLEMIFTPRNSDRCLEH
Protocol: Cell Culture. AR and SK-BR-3 cells were obtained from ATCC (Rockville, Md.). SK-BR-3 cells were maintained in phenol red-free custom media (MEM, Earle's salts, 1.5× amino acids, 2× non-essential amino acids, L-glutamine, 1.5× vitamins, Gibco BRL) supplemented with 10% fetal bovine serum (FBS), 2 mM L-glutamine and 20 mg/L gentamycin. JAR cells were maintained in RPMI 1640 medium with 2 mM L-glutamine adjusted to contain 1.5 g/L sodium bicarbonate, 4.5 g/L glucose, 10 mM HEPES, and 1.0 mM sodium pyruvate, 90%; FBS, 10%. Fetal bovine serum was heat inactivated for 30 min in a 56° C. water bath before use. Cell cultures were grown at 37° C., in a humidified atmosphere of 5% CO2 in a Hereaus CO2 incubator. For all experiments, cells were plated in 6 well plates and grown to subconfluency. Before treatment, the media was changed to a defined one containing DMEM/F12 media (Sigma) with 1.0 mg/mL human albumin (OSU Hospital Pharmacy), 5.0 mg/L human transferin and 5.0 mg/L bovine insulin.
Tritiated water-release assay in JAR and SK-BR-3 cell lines. Measurement of aromatase enzyme activity was based on the tritium water release assay. Cells in six well plates were treated with 0.1% DMSO (control), and inhibitors at the indicated concentrations. After 24 hours, the cells were incubated 3 hours (SK-BR-3 cells) or 1 hour (JAR cells) with fresh media along with 100 nM [1β-^3H]-androst-4-ene-3,17-dione (1 μCi). Subsequently, the reaction mixture was removed, and proteins were precipitated using 10% trichloroacetic acid at 42° C. for 20 min. After a brief centrifugation, the media was extracted three times with an equal amount of chloroform to remove remaining substrate and further treated with dextran-treated charcoal. After centrifugation, a 250-μl aliquot containing the product was counted in 5 ml of liquid scintillation mixture. Results were corrected for blanks and for the cell contents of culture flasks, and results were expressed as picomoles of ^3H2O formed per hour incubation time per million live cells (pmol/h/10^6 cells). To determine the amount of cells in each flask, the cells were lysed and analyzed using the diphenylamine DNA assay adapted to a 96-well plate. IC50 sigmoidal dose-response data were analyzed with Microsoft Excel and the Graphpad Prism (Version 3.0) program.
Diphenylamine DNA Assay To determine the amount of viable cells in each flask, the cells were lysed with 0.5N NaOH aqueous solution and analyzed using the diphenylamine DNA assay adapted to a 96-well plate. DNA standards (0-30 μg) were prepared using double-stranded DNA reconstituted in PBS and added in triplicates directly to the wells. A uniform cell suspension was prepared from the 6 well plate in 300 μl 0.5N NaOH aqueous solution, and 60 μl of the unknown samples were added in triplicates to separate wells. A solution of 0.16% acetaldehyde in water was prepared and mixed at a 1:5 ratio with perchloric acid (20% vol/vol). This solution (60 μl) was added to each well along with 100 μl of a 4% diphenylamine solution in glacial acetic acid. The plates were incubated at 37° C. for 24 hours. After centrifugation, 100 μl supernatant of each well was transferred to a new 96 well plate, and the OD595 was measured using a microplater reader. The DNA concentration was determined by extrapolation to the standard curve and the amount of cells/well was calculated using the equation: 1 cell≈7 pg DNA.

Structure (SMILES)	IC50 [1]	melting point	CYP19 gene expression [2]	inhibition at 15 µM [3]
CC(C)Oc1cc([N+](=O)[O-])ccc1NS(C)(=O)=O [Compound 10, N-(2-Isopropyloxy-4-nitrophenyl)methanesulfonamide]	5.87 µM	128 to 131 °C	–	–
COc1cc([N+](=O)[O-])ccc1N(C)S(C)(=O)=O [Compound 25, N-Methyl-N-(2-methoxy-4-nitrophenyl)methanesulfonamide]	> 25 µM	125 to 126 °C	–	–
CC(C)Oc1cc([N+](=O)[O-])ccc1N(C)S(C)(=O)=O [Compound 19, N-Methyl-N-(2-isopropyloxy-4-nitrophenyl)methanesulfonamide]	2.81 µM	99 to 100 °C	–	–
CCCCCCCCCOc1cc([N+](=O)[O-])ccc1NS(C)(=O)=O [Compound 14, N-(2-Nonyloxy-4-nitrophenyl)methanesulfonamide]	0.91 µM	70 to 71 °C	–	–
CCCOc1cc([N+](=O)[O-])ccc1N(C)S(C)(=O)=O [Compound 18, N-Methyl-N-(2-propyloxy-4-nitrophenyl)methanesulfonamide]	0.76 µM	66 to 69 °C	–	–
CCCCCCOc1cc([N+](=O)[O-])ccc1NS(C)(=O)=O [Compound 15, N-(2-Hexyloxy-4-nitrophenyl)methanesulfonamide]	2.67 µM	74 to 76 °C	–	–
COc1cc([N+](=O)[O-])ccc1NS(C)(=O)=O [Compound 16, N-(2-Methoxy-4-nitrophenyl)methanesulfonamide]	> 25 µM	128 to 130 °C	–	–
CCCCCCCCCOc1cc([N+](=O)[O-])ccc1N(C)S(C)(=O)=O [Compound 23, N-Methyl-N-(2-nonyloxy-4-nitrophenyl)methanesulfonamide]	3.96 µM	83 to 84 °C	–	–
CS(=O)(=O)Nc1ccc([N+](=O)[O-])cc1OCCc1ccccc1 [Compound 37b, N-(2-phenylethoxy 4-nitrophenyl) methanesulfonamide]	–	–	not affect the CYP19 gene expression	–
CN(c1ccc([N+](=O)[O-])cc1OCc1cccc2ccccc12)S(C)(=O)=O [Compound 38c, N-methyl-N-[2-(α-naphthylmethoxy) 4-nitrophenyl]methanesulfonamide]	–	163 to 165 °C	–	< 50%
CCCCCCOc1cc([N+](=O)[O-])ccc1N(C)S(C)(=O)=O [Compound 24, N-Methyl-N-(2-hexyloxy-4-nitrophenyl)methanesulfonamide]	4.49 µM	44 to 46 °C	–	–
CCCOc1cc([N+](=O)[O-])ccc1NS(C)(=O)=O [Compound 9, N-(2-Propyloxy-4-nitrophenyl)methanesulfonamide]	2.51 µM	117 to 119 °C	–	–
